Assay results from PubChem BioAssay AID2060506 (Molecular Pharmacology Branch, DTP, NCI, 2025).
Blank lines part the entries; values can stand above or below the molecule they belong to.

Test system: 598228-144-R-J1-PDC complex spheroid viability
Test: Anticancer human tumor 598228-144-R-J1-PDC patient-derived serous endometrial adenocarcinoma cell line growth inhibition [GQUAD]
Conditions: for IC50: curve of first compound; for viability, T/C: stronger effect = lower value
Outline: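 Viability of tumor cells grown as complex spheroids with endothelial and stromal cells, exposed to drug combinations. Top concentration at or near clinical Cmax (else 10 microM), diluted in half-log increments.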

[1] = second compound 0.0316 µM, first compound 0.0316 µM
[2] = second compound 0.0316 µM, first compound 0.1 µM
[3] = second compound 0.0316 µM, first compound 0.316 µM
[4] = second compound 0.0316 µM, first compound 1 µM
[5] = second compound 0.0316 µM, first compound 3.16 µM
[6] = second compound 0.0316 µM, first compound 10 µM
[7] = second compound 0.1 µM, first compound 0.0316 µM
[8] = second compound 0.1 µM, first compound 0.1 µM
[9] = second compound 0.1 µM, first compound 0.316 µM
[10] = second compound 0.1 µM, first compound 1 µM
[11] = second compound 0.1 µM, first compound 3.16 µM
[12] = second compound 0.1 µM, first compound 10 µM
[13] = second compound 0.316 µM, first compound 0.0316 µM
[14] = second compound 0.316 µM, first compound 0.1 µM
[15] = second compound 0.316 µM, first compound 0.316 µM
[16] = second compound 0.316 µM, first compound 1 µM
[17] = second compound 0.316 µM, first compound 3.16 µM
[18] = second compound 0.316 µM, first compound 10 µM
[19] = second compound 1 µM, first compound 0.0316 µM
[20] = second compound 1 µM, first compound 0.1 µM
[21] = second compound 1 µM, first compound 0.316 µM
[22] = second compound 1 µM, first compound 1 µM
[23] = second compound 1 µM, first compound 3.16 µM
[24] = second compound 1 µM, first compound 10 µM
[25] = second compound 3.16 µM, first compound 0.0316 µM
[26] = second compound 3.16 µM, first compound 0.1 µM
[27] = second compound 3.16 µM, first compound 0.316 µM
[28] = second compound 3.16 µM, first compound 1 µM
[29] = second compound 3.16 µM, first compound 3.16 µM
[30] = second compound 3.16 µM, first compound 10 µM
[31] = second compound 10 µM, first compound 0.0316 µM
[32] = second compound 10 µM, first compound 0.1 µM
[33] = second compound 10 µM, first compound 0.316 µM
[34] = second compound 10 µM, first compound 1 µM
[35] = second compound 10 µM, first compound 3.16 µM
[36] = second compound 10 µM, first compound 10 µM
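Also: spheroids exposed to the agents for one week before reading.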
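For viability, T/C in this document: percent of vehicle DMSO control viability so 100% = untreated growth.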

IC50 (second compound 0.0316 µM): > 10 µM
IC50 (second compound 0.1 µM): > 10 µM
IC50 (second compound 0.316 µM): > 10 µM
IC50 (second compound 1 µM): 8.91 µM
IC50 (second compound 3.16 µM): 0.0316 µM
IC50 (second compound 10 µM): < 0.0316 µM
Structure (SMILES): C#Cc1c(F)ccc2cc(O)cc(-c3ncc4c(N5CC6CCC(C5)N6)nc(OCC56CCCN5CC(F)C6)nc4c3F)c12 (stereo unspecified) + Cc1cnc(CNC(=O)c2c(=O)c3ccc(N4CCCN(C)CC4)nc3n3c2sc2ccccc23)cn1
viability, T/C [1]: 99.8%
viability, T/C [2]: 88.6%
viability, T/C [3]: 85.6%
viability, T/C [4]: 83.2%
viability, T/C [5]: 101%
viability, T/C [6]: 81.7%
viability, T/C [7]: 64.3%
viability, T/C [8]: 77.7%
viability, T/C [9]: 71.6%
viability, T/C [10]: 63.7%
viability, T/C [11]: 69.7%
viability, T/C [12]: 68.7%
viability, T/C [13]: 75%
viability, T/C [14]: 58.8%
viability, T/C [15]: 62.7%
viability, T/C [16]: 55.4%
viability, T/C [17]: 69.9%
viability, T/C [18]: 53.1%
viability, T/C [19]: 57%
viability, T/C [20]: 53.4%
viability, T/C [21]: 54%
viability, T/C [22]: 58.9%
viability, T/C [23]: 52.4%
viability, T/C [24]: 46.1%
viability, T/C [25]: 46.5%
viability, T/C [26]: 50.9%
viability, T/C [27]: 46.8%
viability, T/C [28]: 40.5%
viability, T/C [29]: 52.2%
viability, T/C [30]: 27.9%
viability, T/C [31]: 25.5%
viability, T/C [32]: 30.3%
viability, T/C [33]: 20.4%
viability, T/C [34]: 24.2%
viability, T/C [35]: 7.19%
viability, T/C [36]: 0.48%

IC50 (second compound 0.0316 µM): 1.39 µM
IC50 (second compound 0.1 µM): 0.887 µM
IC50 (second compound 0.316 µM): 1.2 µM
IC50 (second compound 1 µM): 1.26 µM
IC50 (second compound 3.16 µM): 0.398 µM
IC50 (second compound 10 µM): < 0.0316 µM
Structure (SMILES): CC(C)(O)C1CCC(Nc2ccc3ncc(-c4cccc(C(F)(F)F)c4)n3n2)CC1 (stereo unspecified) + Cc1cnc(CNC(=O)c2c(=O)c3ccc(N4CCCN(C)CC4)nc3n3c2sc2ccccc23)cn1
viability, T/C [1]: 76.5%
viability, T/C [2]: 93.7%
viability, T/C [3]: 73.2%
viability, T/C [4]: 62.9%
viability, T/C [5]: 16.7%
viability, T/C [6]: 17.8%
viability, T/C [7]: 73.7%
viability, T/C [8]: 69.2%
viability, T/C [9]: 70.2%
viability, T/C [10]: 46.4%
viability, T/C [11]: 22.9%
viability, T/C [12]: 10.9%
viability, T/C [13]: 77%
viability, T/C [14]: 53.6%
viability, T/C [15]: 74.7%
viability, T/C [16]: 56.1%
viability, T/C [17]: 17.7%
viability, T/C [18]: 17.6%
viability, T/C [19]: 64.2%
viability, T/C [20]: 45.9%
viability, T/C [21]: 58.2%
viability, T/C [22]: 65.8%
viability, T/C [23]: 13.6%
viability, T/C [24]: 18.3%
viability, T/C [25]: 51.2%
viability, T/C [26]: 56.8%
viability, T/C [27]: 55.2%
viability, T/C [28]: 32.6%
viability, T/C [29]: 0.22%
viability, T/C [30]: 0.19%
viability, T/C [31]: 25.4%
viability, T/C [32]: 0.49%
viability, T/C [33]: 33%
viability, T/C [34]: 0.33%
viability, T/C [35]: 0.26%
viability, T/C [36]: 5.96%

IC50 (second compound 0.0316 µM): 0.807 µM
IC50 (second compound 0.1 µM): 0.745 µM
IC50 (second compound 0.316 µM): 0.779 µM
IC50 (second compound 1 µM): 0.529 µM
IC50 (second compound 3.16 µM): 0.335 µM
IC50 (second compound 10 µM): < 0.0316 µM
Structure (SMILES): COc1cccc2c1C(=O)c1c(O)c3c(c(O)c1C2=O)CC(O)(C(=O)CO)CC3OC1CC(N)C(O)C(C)O1 (stereo unspecified) + Cc1cnc(CNC(=O)c2c(=O)c3ccc(N4CCCN(C)CC4)nc3n3c2sc2ccccc23)cn1
viability, T/C [1]: 90.4%
viability, T/C [2]: 73.9%
viability, T/C [3]: 79.3%
viability, T/C [4]: 43.3%
viability, T/C [5]: 0.82%
viability, T/C [6]: 0.57%
viability, T/C [7]: 80.8%
viability, T/C [8]: 56.7%
viability, T/C [9]: 77.8%
viability, T/C [10]: 42.5%
viability, T/C [11]: 1.19%
viability, T/C [12]: 0.85%
viability, T/C [13]: 69.1%
viability, T/C [14]: 64.6%
viability, T/C [15]: 80.3%
viability, T/C [16]: 44.1%
viability, T/C [17]: 0.37%
viability, T/C [18]: 0.24%
viability, T/C [19]: 63.1%
viability, T/C [20]: 67.6%
viability, T/C [21]: 82.9%
viability, T/C [22]: 23.8%
viability, T/C [23]: 0.6%
viability, T/C [24]: 0.4%
viability, T/C [25]: 44.3%
viability, T/C [26]: 61.6%
viability, T/C [27]: 52.7%
viability, T/C [28]: 0.52%
viability, T/C [29]: 0.72%
viability, T/C [30]: 0.28%
viability, T/C [31]: 45.2%
viability, T/C [32]: 43.8%
viability, T/C [33]: 20.7%
viability, T/C [34]: 0.36%
viability, T/C [35]: 0.41%
viability, T/C [36]: 0.29%
